Laboratory results reported in the kinase profiling compilation of Christmann-Franck et al. (2016).

How the values were obtained:
Assay in all cases: KINOMEscan competition binding
Settings in all cases: compound 10.0 µM
ACVR1 (human) = ACVR1 (human) (UniProt Q04771)
ADCK4 (human) = ADCK4 (human) (UniProt Q96D53)
CDC42BPA (human) = CDC42BPA (human) (UniProt Q5VT25)
CDK13 (human) = CDK13 (human) (UniProt Q14004)
CDK16 (human) = CDK16 (human) (UniProt Q00536)
CDK18 (human) = CDK18 (human) (UniProt Q07002)
CPK1 (P.falciparum) = test system: CPK1 (P.falciparum)
CSNK2A2 (human) = CSNK2A2 (human) (UniProt P19784)
Sequence of CSNK2A2 (human) (P19784 whole entry, looked up): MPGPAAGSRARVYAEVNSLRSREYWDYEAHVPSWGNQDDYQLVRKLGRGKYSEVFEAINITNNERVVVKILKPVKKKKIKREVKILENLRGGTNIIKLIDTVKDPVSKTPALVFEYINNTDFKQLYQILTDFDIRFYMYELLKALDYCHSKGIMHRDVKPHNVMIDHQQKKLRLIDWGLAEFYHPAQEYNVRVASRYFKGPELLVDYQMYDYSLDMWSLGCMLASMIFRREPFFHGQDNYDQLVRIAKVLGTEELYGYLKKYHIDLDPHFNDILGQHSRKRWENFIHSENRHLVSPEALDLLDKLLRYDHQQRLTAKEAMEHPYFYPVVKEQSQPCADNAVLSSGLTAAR

EPHB3 (human) = EPHB3 (human) (UniProt P54753)
[1] = test system: FLT3 (human), P36888 [D835Y]
[2] = test system: FLT3 (human), P36888 [N841I]
GSK3A (human) = GSK3A (human) (UniProt P49840)
HIPK4 (human) = HIPK4 (human) (UniProt Q8NE63)
IKBKB (human) = IKBKB (human) (UniProt O14920)
[3] = molecular target: JAK3 JH1 catalytic (human) (UniProt P52333)
LATS2 (human) = LATS2 (human) (UniProt Q9NRM7)
MAP3K3 (human) = MAP3K3 (human) (UniProt Q99759)
MAP4K3 (human) = MAP4K3 (human) (UniProt Q8IVH8)
MAPK7 (human) = MAPK7 (human) (UniProt Q13164)
MAPK8 (human) = MAPK8 (human) (UniProt P45983)
MERTK (human) = MERTK (human) (UniProt Q12866)
MLTK (human) = MLTK (human) (UniProt Q9NYL2)
MYLK3 (human) = MYLK3 (human) (UniProt Q32MK0)
NEK2 (human) = NEK2 (human) (UniProt P51955)
Sequence of NEK2 (human) (P51955 whole entry, looked up): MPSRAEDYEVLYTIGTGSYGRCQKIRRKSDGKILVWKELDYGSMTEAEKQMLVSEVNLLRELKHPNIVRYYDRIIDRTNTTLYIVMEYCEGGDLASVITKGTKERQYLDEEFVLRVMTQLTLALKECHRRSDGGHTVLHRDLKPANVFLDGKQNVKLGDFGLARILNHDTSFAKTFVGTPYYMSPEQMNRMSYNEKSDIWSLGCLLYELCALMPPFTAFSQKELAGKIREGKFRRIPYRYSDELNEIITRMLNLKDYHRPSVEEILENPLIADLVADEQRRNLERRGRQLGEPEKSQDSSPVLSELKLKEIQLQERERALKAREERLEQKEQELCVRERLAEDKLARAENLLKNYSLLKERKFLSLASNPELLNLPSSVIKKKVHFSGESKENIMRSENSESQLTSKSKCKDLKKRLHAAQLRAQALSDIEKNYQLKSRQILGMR

PAK1 (human) = PAK1 (human) (UniProt Q13153)
PAK3 (human) = PAK3 (human) (UniProt O75914)
PIK3C2B (human) = PIK3C2B (human) (UniProt O00750)
[4] = test system: PIK3CA (human), P42336 [H1047L]
[5] = test system: PIK3CA (human), P42336 [Q546K]
PRKACA (human) = PRKACA (human) (UniProt P17612)
PRKCH (human) = PRKCH (human) (UniProt P24723)
Sequence of PRKCH (human) (P24723 whole entry, looked up): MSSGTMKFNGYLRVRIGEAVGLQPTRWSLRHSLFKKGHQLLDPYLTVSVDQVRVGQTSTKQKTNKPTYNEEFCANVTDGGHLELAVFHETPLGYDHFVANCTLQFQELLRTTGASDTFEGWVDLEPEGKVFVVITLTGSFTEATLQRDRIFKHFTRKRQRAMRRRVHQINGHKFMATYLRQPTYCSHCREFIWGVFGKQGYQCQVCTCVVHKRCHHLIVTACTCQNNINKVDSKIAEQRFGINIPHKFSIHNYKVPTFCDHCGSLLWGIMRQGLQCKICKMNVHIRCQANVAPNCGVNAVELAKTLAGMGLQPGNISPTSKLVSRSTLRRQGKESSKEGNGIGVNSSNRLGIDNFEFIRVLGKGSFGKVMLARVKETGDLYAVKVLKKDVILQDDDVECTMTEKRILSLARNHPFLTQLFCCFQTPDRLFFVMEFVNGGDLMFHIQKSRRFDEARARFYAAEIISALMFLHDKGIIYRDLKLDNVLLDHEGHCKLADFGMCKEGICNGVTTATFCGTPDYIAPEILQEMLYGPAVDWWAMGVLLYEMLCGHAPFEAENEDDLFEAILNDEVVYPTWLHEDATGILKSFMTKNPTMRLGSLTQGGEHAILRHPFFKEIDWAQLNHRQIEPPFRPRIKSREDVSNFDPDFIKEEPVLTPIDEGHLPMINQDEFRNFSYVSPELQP

PRKCI (human) = PRKCI (human) (UniProt P41743)
PRKX (human) = PRKX (human) (UniProt P51817)
Sequence of PRKX (human) (P51817 whole entry, looked up): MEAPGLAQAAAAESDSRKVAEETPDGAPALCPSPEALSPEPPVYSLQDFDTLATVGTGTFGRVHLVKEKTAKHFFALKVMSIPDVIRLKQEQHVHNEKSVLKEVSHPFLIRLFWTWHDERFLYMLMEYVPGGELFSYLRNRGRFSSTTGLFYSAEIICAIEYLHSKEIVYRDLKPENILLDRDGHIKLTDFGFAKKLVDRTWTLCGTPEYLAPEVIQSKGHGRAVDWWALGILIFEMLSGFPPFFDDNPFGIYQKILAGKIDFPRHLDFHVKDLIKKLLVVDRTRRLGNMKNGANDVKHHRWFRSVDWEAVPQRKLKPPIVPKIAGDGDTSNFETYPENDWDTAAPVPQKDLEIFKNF

ROCK2 (human) = ROCK2 (human) (UniProt O75116)
Sequence of ROCK2 (human) (O75116 whole entry, looked up): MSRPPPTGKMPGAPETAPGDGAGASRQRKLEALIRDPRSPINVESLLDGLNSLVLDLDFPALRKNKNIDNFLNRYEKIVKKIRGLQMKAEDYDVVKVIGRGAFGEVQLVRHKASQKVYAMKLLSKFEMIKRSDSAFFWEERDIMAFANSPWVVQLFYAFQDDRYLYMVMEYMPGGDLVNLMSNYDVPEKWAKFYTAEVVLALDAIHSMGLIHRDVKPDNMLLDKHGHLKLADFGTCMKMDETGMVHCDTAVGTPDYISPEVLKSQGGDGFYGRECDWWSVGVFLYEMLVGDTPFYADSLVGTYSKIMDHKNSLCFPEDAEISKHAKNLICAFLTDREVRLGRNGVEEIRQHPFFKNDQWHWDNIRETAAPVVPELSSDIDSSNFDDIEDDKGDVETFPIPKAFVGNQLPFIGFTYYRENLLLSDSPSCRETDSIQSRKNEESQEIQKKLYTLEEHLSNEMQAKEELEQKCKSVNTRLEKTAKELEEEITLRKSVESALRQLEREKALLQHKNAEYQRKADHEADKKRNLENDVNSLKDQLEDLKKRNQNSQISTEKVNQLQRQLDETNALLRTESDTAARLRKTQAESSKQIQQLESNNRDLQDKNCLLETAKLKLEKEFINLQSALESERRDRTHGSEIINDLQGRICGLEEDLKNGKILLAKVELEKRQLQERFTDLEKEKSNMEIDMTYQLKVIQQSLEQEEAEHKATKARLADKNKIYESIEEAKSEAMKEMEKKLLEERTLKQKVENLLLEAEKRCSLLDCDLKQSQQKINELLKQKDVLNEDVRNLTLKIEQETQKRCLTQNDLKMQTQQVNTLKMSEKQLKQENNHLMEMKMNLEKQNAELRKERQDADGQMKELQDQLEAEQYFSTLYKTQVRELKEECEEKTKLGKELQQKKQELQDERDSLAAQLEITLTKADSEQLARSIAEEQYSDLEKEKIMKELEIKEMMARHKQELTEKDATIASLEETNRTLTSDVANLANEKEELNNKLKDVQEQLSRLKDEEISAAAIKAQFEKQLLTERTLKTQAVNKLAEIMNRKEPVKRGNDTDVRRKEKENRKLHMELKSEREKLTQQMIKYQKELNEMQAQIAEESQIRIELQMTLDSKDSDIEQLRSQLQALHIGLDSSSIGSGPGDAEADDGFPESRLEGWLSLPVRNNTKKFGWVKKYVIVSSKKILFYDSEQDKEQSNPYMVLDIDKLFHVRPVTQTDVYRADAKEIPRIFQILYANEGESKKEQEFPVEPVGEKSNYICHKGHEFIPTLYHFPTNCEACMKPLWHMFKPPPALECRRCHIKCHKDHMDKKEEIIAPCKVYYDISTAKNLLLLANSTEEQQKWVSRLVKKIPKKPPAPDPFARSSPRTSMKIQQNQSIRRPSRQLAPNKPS

RPS6KA2 KD1 (human) = RPS6KA2 KD1 (human) (UniProt Q15349)
RPS6KA3 KD1 (human) = RPS6KA3 KD1 (human) (UniProt P51812)
Sequence of RPS6KA3 KD1 (human) (P51812 whole entry, looked up): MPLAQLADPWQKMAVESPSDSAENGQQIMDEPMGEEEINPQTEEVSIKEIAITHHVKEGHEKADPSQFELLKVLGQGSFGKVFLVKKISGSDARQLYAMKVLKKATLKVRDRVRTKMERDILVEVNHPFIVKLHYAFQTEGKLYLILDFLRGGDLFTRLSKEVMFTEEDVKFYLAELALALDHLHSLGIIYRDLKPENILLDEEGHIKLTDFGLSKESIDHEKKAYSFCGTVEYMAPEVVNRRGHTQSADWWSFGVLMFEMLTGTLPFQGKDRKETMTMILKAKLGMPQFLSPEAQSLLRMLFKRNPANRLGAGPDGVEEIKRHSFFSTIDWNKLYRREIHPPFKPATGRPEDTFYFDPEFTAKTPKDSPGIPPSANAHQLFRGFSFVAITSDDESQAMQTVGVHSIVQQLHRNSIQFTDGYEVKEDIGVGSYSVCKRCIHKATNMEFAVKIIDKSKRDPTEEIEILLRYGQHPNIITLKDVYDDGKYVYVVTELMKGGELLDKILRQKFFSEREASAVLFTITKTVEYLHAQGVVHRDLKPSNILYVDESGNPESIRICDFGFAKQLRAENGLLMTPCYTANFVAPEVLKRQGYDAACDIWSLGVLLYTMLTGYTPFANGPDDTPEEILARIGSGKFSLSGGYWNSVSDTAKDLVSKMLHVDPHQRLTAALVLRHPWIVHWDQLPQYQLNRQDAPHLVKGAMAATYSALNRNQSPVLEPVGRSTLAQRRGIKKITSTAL

STK24 (human) = STK24 (human) (UniProt Q9Y6E0)
TTK (human) = TTK (human) (UniProt P33981)
YES1 (human) = YES1 (human) (UniProt P07947)
Sequence of YES1 (human) (P07947 whole entry, looked up): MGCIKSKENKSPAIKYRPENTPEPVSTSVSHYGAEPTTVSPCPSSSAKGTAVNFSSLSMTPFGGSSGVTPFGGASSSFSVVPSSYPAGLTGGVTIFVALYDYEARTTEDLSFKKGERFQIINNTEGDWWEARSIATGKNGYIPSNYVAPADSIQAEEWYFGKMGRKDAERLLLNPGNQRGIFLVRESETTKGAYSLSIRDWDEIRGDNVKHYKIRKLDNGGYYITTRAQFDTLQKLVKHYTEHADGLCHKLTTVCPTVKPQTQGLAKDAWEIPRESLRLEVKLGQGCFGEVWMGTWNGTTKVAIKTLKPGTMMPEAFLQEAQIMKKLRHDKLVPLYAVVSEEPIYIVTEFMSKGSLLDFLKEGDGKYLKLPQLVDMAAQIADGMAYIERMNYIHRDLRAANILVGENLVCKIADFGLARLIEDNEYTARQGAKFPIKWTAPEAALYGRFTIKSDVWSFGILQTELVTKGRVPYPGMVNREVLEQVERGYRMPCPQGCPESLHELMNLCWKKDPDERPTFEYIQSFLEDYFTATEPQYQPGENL

YSK4 (human) = YSK4 (human) (UniProt Q56UN5)
FER (human) = FER (human) (UniProt P16591)

Sequence of ADCK4 (human) (Q96D53 whole entry, looked up): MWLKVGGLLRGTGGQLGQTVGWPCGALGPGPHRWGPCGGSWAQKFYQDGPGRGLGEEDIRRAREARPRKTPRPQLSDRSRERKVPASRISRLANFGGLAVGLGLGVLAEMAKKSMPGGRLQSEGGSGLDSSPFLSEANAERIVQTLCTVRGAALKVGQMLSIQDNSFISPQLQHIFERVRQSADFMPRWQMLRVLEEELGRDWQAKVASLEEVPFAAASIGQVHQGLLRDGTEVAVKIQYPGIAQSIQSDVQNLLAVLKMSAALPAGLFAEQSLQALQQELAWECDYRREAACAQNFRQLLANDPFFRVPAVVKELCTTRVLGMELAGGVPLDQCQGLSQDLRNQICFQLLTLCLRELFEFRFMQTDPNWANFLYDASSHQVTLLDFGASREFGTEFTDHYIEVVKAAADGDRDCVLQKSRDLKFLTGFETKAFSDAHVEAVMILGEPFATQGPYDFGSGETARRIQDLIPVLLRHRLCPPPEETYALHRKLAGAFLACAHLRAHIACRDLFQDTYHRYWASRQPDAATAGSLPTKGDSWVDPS

## CCC(=O)N1CCN(c2ccc(-n3c(=O)ccc4cnc5ccc(-c6cnc7ccccc7c6)cc5c43)cc2C(F)(F)F)CC1
ACVR1 (human)
  kinase still bound, per cent of control: 28%
ADCK4 (human)
  kinase still bound, per cent of control: 15%
CDC42BPA (human)
  kinase still bound, per cent of control: 0.65%
CDK13 (human)
  per cent of control: 80%
CDK16 (human)
  per cent of control: 91%
CDK18 (human)
  per cent of control: 97%
CPK1 (P.falciparum)
  kinase still bound, per cent of control: 36%
CSNK2A2 (human)
  kinase still bound, per cent of control: 11%
EPHB3 (human)
  kinase still bound, per cent of control: 85%
[1]
  kinase still bound, per cent of control: 16%
[2]
  kinase still bound, per cent of control: 8.8%
GSK3A (human)
  kinase still bound, per cent of control: 93%
HIPK4 (human)
  kinase still bound, per cent of control: 4.6%
IKBKB (human)
  kinase still bound, per cent of control: 61%
[3]
  kinase still bound, per cent of control: 100%
LATS2 (human)
  kinase still bound, per cent of control: 100%
MAP3K3 (human)
  kinase still bound, per cent of control: 75%
MAP4K3 (human)
  kinase still bound, per cent of control: 1.9%
MAPK7 (human)
  kinase still bound, per cent of control: 100%
MAPK8 (human)
  kinase still bound, per cent of control: 22%
MERTK (human)
  kinase still bound, per cent of control: 53%
MLTK (human)
  kinase still bound, per cent of control: 22%
MYLK3 (human)
  kinase still bound, per cent of control: 94%
NEK2 (human)
  kinase still bound, per cent of control: 90%
PAK1 (human)
  kinase still bound, per cent of control: 73%
PAK3 (human)
  kinase still bound, per cent of control: 100%
PIK3C2B (human)
  kinase still bound, per cent of control: 25%
[4]
  kinase still bound, per cent of control: 2.6%
[5]
  kinase still bound, per cent of control: 6.8%
PRKACA (human)
  per cent of control: 79%
PRKCH (human)
  kinase still bound, per cent of control: 92%
PRKCI (human)
  kinase still bound, per cent of control: 85%
PRKX (human)
  kinase still bound, per cent of control: 83%
ROCK2 (human)
  kinase still bound, per cent of control: 50%
RPS6KA2 KD1 (human)
  kinase still bound, per cent of control: 100%
RPS6KA3 KD1 (human)
  kinase still bound, per cent of control: 38%
STK24 (human)
  kinase still bound, per cent of control: 100%
TTK (human)
  kinase still bound, per cent of control: 9.6%
YES1 (human)
  kinase still bound, per cent of control: 74%
YSK4 (human)
  kinase still bound, per cent of control: 38%

## CC(C)n1nc(-c2cc3cc(O)ccc3[nH]2)c2c(N)ncnc21
ACVR1 (human)
  kinase still bound, per cent of control: 0.1%
ADCK4 (human)
  kinase still bound, per cent of control: 13%
CDC42BPA (human)
  kinase still bound, per cent of control: 74%
CDK13 (human)
  per cent of control: 100%
CDK16 (human)
  per cent of control: 98%
CDK18 (human)
  per cent of control: 100%
CSNK2A2 (human)
  kinase still bound, per cent of control: 3.5%
EPHB3 (human)
  kinase still bound, per cent of control: 81%
FER (human)
  kinase still bound, per cent of control: 64%
[1]
  kinase still bound, per cent of control: 7%
[2]
  kinase still bound, per cent of control: 5%
GSK3A (human)
  kinase still bound, per cent of control: 74%
HIPK4 (human)
  kinase still bound, per cent of control: 27%
IKBKB (human)
  kinase still bound, per cent of control: 84%
[3]
  kinase still bound, per cent of control: 0%
LATS2 (human)
  kinase still bound, per cent of control: 41%
MAP3K3 (human)
  kinase still bound, per cent of control: 3.2%
MAP4K3 (human)
  kinase still bound, per cent of control: 52%
MAPK7 (human)
  kinase still bound, per cent of control: 100%
MAPK8 (human)
  kinase still bound, per cent of control: 89%
MERTK (human)
  kinase still bound, per cent of control: 61%
MLTK (human)
  kinase still bound, per cent of control: 29%
NEK2 (human)
  kinase still bound, per cent of control: 75%
PAK1 (human)
  kinase still bound, per cent of control: 52%
PAK3 (human)
  kinase still bound, per cent of control: 59%
PIK3C2B (human)
  kinase still bound, per cent of control: 5.6%
PRKACA (human)
  per cent of control: 47%
PRKCH (human)
  kinase still bound, per cent of control: 10%
PRKCI (human)
  kinase still bound, per cent of control: 52%
PRKX (human)
  kinase still bound, per cent of control: 100%
ROCK2 (human)
  kinase still bound, per cent of control: 60%
RPS6KA2 KD1 (human)
  kinase still bound, per cent of control: 48%
RPS6KA3 KD1 (human)
  kinase still bound, per cent of control: 0.35%
STK24 (human)
  kinase still bound, per cent of control: 67%
TTK (human)
  kinase still bound, per cent of control: 9.2%
YES1 (human)
  kinase still bound, per cent of control: 3.2%
YSK4 (human)
  kinase still bound, per cent of control: 0%

## COc1ccc(-c2ccc3c(N4CCOCC4)nc(N4C[C@@H](C)O[C@@H](C)C4)nc3n2)cc1CO
ACVR1 (human)
  kinase still bound, per cent of control: 100%
ADCK4 (human)
  kinase still bound, per cent of control: 87%
CDC42BPA (human)
  kinase still bound, per cent of control: 92%
CDK13 (human)
  per cent of control: 100%
CDK16 (human)
  per cent of control: 100%
CDK18 (human)
  per cent of control: 100%
CPK1 (P.falciparum)
  kinase still bound, per cent of control: 100%
CSNK2A2 (human)
  kinase still bound, per cent of control: 98%
EPHB3 (human)
  kinase still bound, per cent of control: 98%
FER (human)
  kinase still bound, per cent of control: 100%
[1]
  kinase still bound, per cent of control: 86%
[2]
  kinase still bound, per cent of control: 82%
GSK3A (human)
  kinase still bound, per cent of control: 100%
HIPK4 (human)
  kinase still bound, per cent of control: 88%
IKBKB (human)
  kinase still bound, per cent of control: 100%
[3]
  kinase still bound, per cent of control: 100%
LATS2 (human)
  kinase still bound, per cent of control: 89%
MAP3K3 (human)
  kinase still bound, per cent of control: 76%
MAP4K3 (human)
  kinase still bound, per cent of control: 85%
MAPK7 (human)
  kinase still bound, per cent of control: 100%
MAPK8 (human)
  kinase still bound, per cent of control: 87%
MERTK (human)
  kinase still bound, per cent of control: 100%
MLTK (human)
  kinase still bound, per cent of control: 100%
MYLK3 (human)
  kinase still bound, per cent of control: 100%
NEK2 (human)
  kinase still bound, per cent of control: 100%
PAK1 (human)
  kinase still bound, per cent of control: 84%
PAK3 (human)
  kinase still bound, per cent of control: 100%
PIK3C2B (human)
  kinase still bound, per cent of control: 85%
[4]
  kinase still bound, per cent of control: 26%
[5]
  kinase still bound, per cent of control: 2.8%
PRKACA (human)
  per cent of control: 100%
PRKCH (human)
  kinase still bound, per cent of control: 100%
PRKCI (human)
  kinase still bound, per cent of control: 79%
PRKX (human)
  kinase still bound, per cent of control: 100%
ROCK2 (human)
  kinase still bound, per cent of control: 21%
RPS6KA2 KD1 (human)
  kinase still bound, per cent of control: 100%
RPS6KA3 KD1 (human)
  kinase still bound, per cent of control: 99%
STK24 (human)
  kinase still bound, per cent of control: 89%
TTK (human)
  kinase still bound, per cent of control: 95%
YES1 (human)
  kinase still bound, per cent of control: 100%
YSK4 (human)
  kinase still bound, per cent of control: 100%
